For series [1], the system named is patients with brain metastasis. Put plainly: Clinical trial: cognitive function in brain metastasis patients under fractionated radiation, xenon versus air. It is filed as in vivo, human. The settings on record: vs air. The protocol:
(§1) A clinical trial is conducted in 20 patients with brain metastasis who receive 2 Gy to 100 Gy fractionated over 2-8 weeks. 10 patients are treated with 10-20 liters of 30% xenon every other day during radiation exposure. An additional 10 patients are treated with similar radiation regimen and administered 10-20 liters of air every other day during radiation exposure. […] Furthermore, verbal memory, as measured by the Hopkins Verbal Learning Test-Revised (HVLT-R), Cognitive flexibility as measured with the Controlled Oral Word Association (COWA), Word Fluency has measured with the Controlled Oral Word Association (COWA), Working memory has measured with the Wechsler Adult Intelligence Scale—Digit Span, Processing speed has measured with the Wechsler Adult Intelligence Scale—Digit Symbol, Motor dexterity has measured with the Grooved Pegboard (GP), Functional assessment, as measured by the Functional Assessment of Cancer Therapy-Brain (FACT-Br), all improved in the xenon treated group.

Series [2] has as its system tumor growth. As to the kind of experiment: Clinical trial: tumor growth in brain metastasis patients receiving xenon versus air controls. The class given is in vivo, human. Particulars: patients receiving xenon as compared to air controls. As to the method: as §1
Where [3] appears, read: 10-20 liters of 30% xenon every other day during radiation exposure.

Consider `[Xe]` [xenon], for which the “cognitive function as measured by HVLT-R Total Recall score (verbal learning and memory test)” value in series [1] (10-20 liters of 30% xenon every other day during radiation exposure (2 Gy to 100 Gy fractionated over 2-8 weeks), at 3, 8, 12, and 24 weeks) is on record as “preservation in cognitive function”. Moreover, in series [1] (setting [3]), the “Cognitive flexibility as measured with the Controlled Oral Word Association (COWA)” value is listed as “improved”; the “Functional assessment, as measured by the Functional Assessment of Cancer Therapy-Brain (FACT-Br)” value was “improved”; the “Motor dexterity measured with the Grooved Pegboard (GP)” value was “improved”; the “Processing speed measured with the Wechsler Adult Intelligence Scale—Digit Symbol” value is on record as “improved”. Besides, in series [1] (setting [3]), the “Word Fluency measured with the Controlled Oral Word Association (COWA)” value is given as “improved”; the “Working memory measured with the Wechsler Adult Intelligence Scale—Digit Span” value was “improved”; the “verbal memory, as measured by the Hopkins Verbal Learning Test-Revised (HVLT-R)” value is “improved”. Besides, the “acceleration of tumor growth” value in series [2] is “No acceleration of tumor growth”.

The values above are taken from patent publication US20170341980A1, “NOBLE GAS NEUROPROTECTION AND NEUROREGENERATION FROM TREATMENT RELATED NEUROTOXICITY” (NOBLIS THERAPEUTICS, INC., priority 2016, published 2017).
